Measurements: patent US20080226639A1, “Heparin Binding Peptide” (Enkan Pharmaceuticals A/S, priority 2004, published 2008)
Residues, ends and D or L forms follow the SMILES beside them.

Experiments:
[1] = test system: rat cerebella granular neurons (CGNs); experiment: Neurite outgrowth of CGNs in co-culture with fibroblasts with or without NCAM expression; format: cell-based; conditions: for neurite outgrowth of CGNs grown on fibroblasts without NCAM expression: CGNs on control fibroblasts without NCAM expression; for neurite outgrowth of CGNs grown on fibroblasts without NCAM expression / neurite outgrowth of CGNs grown on fibroblasts expressing NCAM: 24 h co-culture, different peptide concentrations (FIG. 1); for neurite outgrowth of CGNs grown on fibroblasts expressing NCAM: CGNs on monolayers of NCAM expressing fibroblasts
Procedure: Genetically modified fibroblasts (mouse fibroblastoid L-cells) with or without NCAM expression are seeded in eight-well LabTek tissue culture chamber slides (Nunc, Roskilde, Denmark) at a density 7×10^4 of cells/well and maintained at 37° C. and 5% CO2 in DMEM with 10% HS, 100 U/ml penicillin and 100 μg/ml streptomycin. 24 h after plating the medium is removed and CGNs (10^4 cells/well) are seeded on monolayers of fibroblasts with or without NCAM expression in Neurobasal-A medium containing 100 U/ml penicillin, 100 μg/ml streptomycin, 1% glutamax and supplemented with B27, and grown in co-culture for 24 hours, afterwards neurite outgrowth is measured. CGNs are prepared from postnatal day 3-4 rat pups according to Rønn, L. C., Doherty, P., Holm, A., Berezin, V., Bock, E. (2000). J. Neurochem. 75(2):665-71.

[2] = test system: fibroblasts with or without NCAM expression (mouse fibroblastoid L-cells); experiment: Random cell motility of fibroblasts, time-lapse video-recording; format: cell-based; conditions: both NCAM expressing fibroblasts and control fibroblasts (FIG. 5)
Procedure: For evaluation the effect of the peptides on cell motility, confluent cultures of fibroblasts with or without NCAM expression are dislodged with 0.5 mg/ml of trypsin and 0.75 mM EDTA in a modified Puck's saline (Gibco BRL), seeded in six-well tissue culture plates (Nunc) at a density of 4×10^3 cells/cm^2 and grown for 24 h at 37° C. and at 5% CO2.
Random cell motility was evaluated by use of time-lapse video-recording and image analysis as described previously (Walmod, et al. (1998). Cell Motil Cytoskeleton. 40(3), 220-37). […]
Evaluation of cell motility and morphology is performed using the image processing software PRIMA. The positions of individual cells are determined by manual marking of the centers of the nuclei. […] The parameters of mean squared cell speed (Sτ), rate of diffusion (R), and locomotive index (LI) are determined according to Walmod, et al. (2000) (Methods Mol. Biology. 161, 59-83) as described below.
The displacement of a cell is the Euclidean distance between two points corresponding to the initial and final positions of the cell. […] The mean squared cell displacement of a cellular population after a given time (t1) of observation was calculated as […]
where P is the persistence time in direction (23). The mean cell speed, Sτ, was calculated as the ratio of the mean displacement of cells (<dτ>) to the time interval τ. […]

[3] = test system: primary cerebellar granule neurons (CGNs); experiment: Neurite outgrowth in primary culture of single CGNs; format: cell-based, rat; conditions: single CGNs (FIG. 3); for maximal effect on neurite outgrowth: peptide immobilized on tissue culture plastic, coating concentration of 5 μg/ml
Procedure: Primary cerebellar granule neurons (CGNs) are prepared from postnatal day 3-4 rat pups according to Rønn, L. C., Doherty, P., Holm, A., Berezin, V., Bock, E. (2000). J. Neurochem. 75(2):665-71. Dissociated cerebella cells are grown at 37° C. and 5% CO2 in Neurobasal-A medium containing 20 mM Hepes, 100 U/ml penicillin, 100 μg/ml streptomycin, 1% glutamax and supplemented with B27 (all from Gibco BRL). For testing the effect of the peptides, CGNs are seeded in eight-well LabTech tissue chamber slides with a growth surface of Permanox plastic (Nunc) at a density of 10^4 cells/well in Neurobasal-A medium containing 100 U/ml penicillin, 100 μg/ml streptomycin, 1% glutamax and supplemented with B27. When treated with Heparinase III (1 U/ml), the enzyme is added to the culture medium immediately after plating. CGNs are treated with the enzyme for 1 h before addition of different concentrations (1 μg/ml, 5 μg/ml, and 20 μg/ml) of the peptides. After 24 h of culture, cells are fixed with paraformaldehyde, immunostained with primary mouse antibodies against CD90 (Thy-1) (1:200) (Caltag Laboratories, USA) (PC12-E2 cells) or GAP-43 (1:1000) (Chemicon, USA) (CGNs) and secondary Alexa Fluor®488 goat antibody against mouse IgG (1:1000) (Molecular Probes, Netherlands), and the length of neurites is measured by a stereological method as previously described (Ronn, L. C., Ralets, I., Hartz, B. P., Bech, M., Berezin, A., Berezin, V., Møller, A., Bock, E (2000). J Neurosci Methods. 100(1-2), 25-32).

[4] = target: T1, recombinant Trk B receptor (Homo sapiens, UniProt Q16620); experiment: BIAcore binding analysis to Trk B receptor; conditions: HBP or Ig2 module immobilized on sensor chip CM5, Trk B injected, 25° C., pH 7.4 (FIG. 7)
T1 construct: purchased RD Systems (USA)
Procedure: Recombinant the Ig2 module of NCAM was prepared using in the yeast P. pastoris expression system (Invitrogen, USA) as previously described (Kiselyov et al., Biol. Chem. 272, 10125-10134, 1997). Recombinant Trk B receptor was purchased from RD Systems (USA).
Binding analysis was performed using a BIAcoreX instrument (Biosensor AB) at 25° C. using 10 mM sodium phosphate pH 7.4, 150 mM NaCl as running buffer. The flow-rate was 5 μl/min. Data were analysed by non-linear curve-fitting using the manufacture's software. The HBP or recombinant Ig 2 module of NCAM were immobilized on a sensor chip CM5 using amine coupling kit (Biosensor AB) as follows: 1) the two halves of the chip (designated Fc1 and Fc2) were activated by 20 μl activation solution; 2) the protein was immobilized on Fc1 using 12 μl 20 μg/ml protein in 10 mM sodium phosphate buffer pH 6.0; 3) Fc1 and Fc2 were blocked by 35 μl blocking solution. Binding of Trk B to the immobilized HBP or the Ig module II of NCAM was studied as follows: Trk B was injected simultaneously into Fc1 (with the immobilized HBP or Ig module II of NCAM) and Fc2 (with nothing immobilized). The curve representing unspecific binding of the compound to the surface of Fc2 was subtracted from the curve representing binding of Trk B to the immobilized protein (HBP or the Ig 2 module of NCAM) and the surface of Fc1. […]

T1 sequence (Q16620 32-822): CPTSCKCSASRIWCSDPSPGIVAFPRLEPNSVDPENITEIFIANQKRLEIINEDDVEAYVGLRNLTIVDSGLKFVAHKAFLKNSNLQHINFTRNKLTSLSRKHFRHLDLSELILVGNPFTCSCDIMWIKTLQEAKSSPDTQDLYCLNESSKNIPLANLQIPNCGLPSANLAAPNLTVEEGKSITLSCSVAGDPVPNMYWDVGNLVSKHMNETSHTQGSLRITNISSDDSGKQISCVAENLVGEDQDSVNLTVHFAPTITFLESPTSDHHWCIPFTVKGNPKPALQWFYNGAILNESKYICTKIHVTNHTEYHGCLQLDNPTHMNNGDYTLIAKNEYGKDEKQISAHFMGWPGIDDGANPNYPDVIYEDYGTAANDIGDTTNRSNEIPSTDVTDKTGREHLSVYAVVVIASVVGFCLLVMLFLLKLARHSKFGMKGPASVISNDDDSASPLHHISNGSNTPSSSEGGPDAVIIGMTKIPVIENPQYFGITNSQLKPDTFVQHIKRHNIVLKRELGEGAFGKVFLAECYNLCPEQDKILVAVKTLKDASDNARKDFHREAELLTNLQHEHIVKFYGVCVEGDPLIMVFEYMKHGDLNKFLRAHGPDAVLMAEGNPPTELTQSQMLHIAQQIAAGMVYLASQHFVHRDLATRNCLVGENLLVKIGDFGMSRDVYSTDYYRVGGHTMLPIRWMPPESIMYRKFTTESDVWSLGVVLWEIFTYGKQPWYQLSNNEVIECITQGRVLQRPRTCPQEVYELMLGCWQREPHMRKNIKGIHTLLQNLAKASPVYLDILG

| Molecule | neurite outgrowth of CGNs grown on fibroblasts without NCAM expression [1] | neurite outgrowth of CGNs grown on fibroblasts expressing NCAM [1] | neuritogenic effect on CGNs grown on control fibroblasts under treatment with SU5402 (FGFR inhibitor) ([1]; control fibroblasts without NCAM expression, plus SU5402 (FIG. 2)) | cell motility: rate of diffusion (R), mean cell speed (Sτ), locomotive index (LI) [2] | change of the neurite outgrowth effect by treatment with heparinase III ([3]; heparinase III 1 U/ml) | maximal effect on neurite outgrowth [3] [%] | effect on NCAM mediated neurite outgrowth in co-cultures of CGNs with NCAM expressing fibroblasts, in the presence of HBP ([1]; NCAM expressing fibroblasts, HBP present (FIG. 2)) | effect on NCAM mediated neurite outgrowth in the absence of HBP ([1]; NCAM expressing fibroblasts, no HBP (FIG. 2)) | Kd [4] [nM] |
| --- | --- | --- | --- | --- | --- | --- | --- | --- | --- |
| CC[C@H](C)[C@H](NC(=O)[C@H](Cc1ccccc1)NC(=O)[C@H](CCCNC(=N)N)NC(=O)[C@@H](NC(=O)[C@H](CC(=O)O)NC(=O)[C@H](CCCCN)NC(=O)[C@H](CCCCN)NC(=O)[C@H](CC(C)C)NC(=O)[C@@H](NC(=O)[C@@H](NC(=O)[C@H](CC(=O)O)NC(=O)[C@H](CCCNC(=N)N)NC(=O)CNC(=O)[C@@H](N)CCCCN)C(C)C)[C@@H](C)CC)C(C)C)C(N)=O [HBP, KGRDVILKKDVRFI] (H-KGRDVILKKDVRFI-NH2; N-terminus and C-terminus assumed) | in a dose-dependent manner increases neurite outgrowth | in a dose-dependent manner increases neurite outgrowth | is not blocked by treatment with SU5402 | clear inhibition of cell motility | reduced the effect of HBP | 680 | – | – | – |
| Cc1c[nH]c(/C=C2\C(=O)Nc3ccccc32)c1CCC(=O)O [SU5402, reference compound] | – | – | – | – | – | – | only partially inhibited | blocks NCAM mediated neurite outgrowth | – |
| KGRDVILAKDVRVI (HBP mutant (peptide M)) [HBP mutant, Lys-161 and Phe-166 substituted for Ala and Val] | still stimulates neurite outgrowth | does not affect the neurite outgrowth response | – | inhibitory effect on the motile behaviour of fibroblasts similar to the effect of HBP | – | 400 | – | – | – |
| Ig 2 module of NCAM: recombinant Ig2 module of NCAM prepared in the yeast P. pastoris expression system (protein) KLMFKNAPTPQEFKEGEDAVIVCDVVSSLPPTIIWKHKGRDVILKKDVRFIVLSNNYLQIRGIKKTDEGTYRCEGRILARGEINFKDIQVIVNV | – | – | – | – | – | – | – | – | 1 to 10 |
